Reference: article PMC10700596 (Nature Communications, 2023)
Several values for one entry are separate records, joined by “and”; a condition that tells them apart may be missing. Identical values can stand only once. Like-named read-outs stand apart in the source and are kept apart here.

Legend:
EP4R [1] = target: T1, EP4R (Homo sapiens, UniProt P35408); test: biochemical; format: binding
T1 construct: Tango fusion cassette (only 'tango' is printed); expressed in transfected cells; host or cells: HTLA cells (tTA-dependent luciferase reporter, β-arrestin2-TEV fusion)
T1 sequence (P35408 whole entry, the tested form may be a part): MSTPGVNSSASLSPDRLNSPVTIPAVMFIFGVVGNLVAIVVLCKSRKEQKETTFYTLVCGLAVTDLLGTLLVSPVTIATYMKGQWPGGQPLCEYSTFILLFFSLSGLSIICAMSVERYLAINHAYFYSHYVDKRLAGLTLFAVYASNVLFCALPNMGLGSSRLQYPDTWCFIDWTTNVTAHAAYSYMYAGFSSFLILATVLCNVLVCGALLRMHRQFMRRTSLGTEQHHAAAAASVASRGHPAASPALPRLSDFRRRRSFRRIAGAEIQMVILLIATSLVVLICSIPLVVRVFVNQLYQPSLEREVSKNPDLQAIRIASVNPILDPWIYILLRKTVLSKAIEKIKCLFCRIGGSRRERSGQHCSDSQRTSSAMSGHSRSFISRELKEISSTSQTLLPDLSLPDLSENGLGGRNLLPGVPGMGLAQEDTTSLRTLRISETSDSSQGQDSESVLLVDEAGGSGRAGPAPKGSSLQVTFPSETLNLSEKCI

EP4R [2] = target: T1, EP4R; test: PRESTO-Tango β-arrestin2 recruitment assay; format: cell-based; settings: for antagonist activity at EP4R: concentration-response
wild-type EP4R = wild-type EP4R (Homo sapiens, UniProt P35408); test: cell-based
Sequence of wild-type EP4R (P35408 whole entry): as the sequence (P35408 whole entry, the tested form may be a part) above

[3] = target: T2, Thromboxane A2 (TP) receptor (Homo sapiens, UniProt P21731); test: Functional cAMP production assay, TP receptor; format: cell-based; settings: agonist alone, replicate columns
T2 sequence (P21731 1-343): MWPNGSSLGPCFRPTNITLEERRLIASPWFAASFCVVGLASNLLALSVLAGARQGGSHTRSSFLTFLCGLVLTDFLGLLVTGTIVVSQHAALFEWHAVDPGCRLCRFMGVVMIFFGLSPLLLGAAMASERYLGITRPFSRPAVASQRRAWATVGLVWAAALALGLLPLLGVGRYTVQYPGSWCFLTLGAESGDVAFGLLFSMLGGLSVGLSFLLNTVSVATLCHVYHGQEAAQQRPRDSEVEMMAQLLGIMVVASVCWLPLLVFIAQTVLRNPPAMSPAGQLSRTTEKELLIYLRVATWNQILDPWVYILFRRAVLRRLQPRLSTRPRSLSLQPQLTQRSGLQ

[4] = read-out: % displacement of 3HPGE2 at 10 µM, 10 µM compound vs 10 nM 3H-PGE2
[5] = PRESTO-Tango -logIC50, antagonist mode, EC80 of PGE2
[6] = PRESTO-Tango IC50 (nM), antagonist mode, EC80 of PGE2
[7] = calculated using the Cheng Prusoff equation, read-out: Arrestin-BRET Ki*
[8] = 10 µM compound vs 10 nM 3H-PGE2, read-out: % displacement of 3HPGE2 at 10 µM
[9] = calculated using the Cheng Prusoff equation, read-out: PRESTO-Tango Ki*

## CCSc1cc(C(=O)O)ccc1NC(=O)c1cnn(-c2ccccc2F)c1 [Compound 59, CCSC=1C=C(C=CC1NC(=O)C=2C=NN(C2)C=3C=CC=CC3F)C(=O)O]
EP4R [1]; [4]
  inhibition at 10 µM: 11.6%

## CC(C)(Oc1ccc(F)cc1)C(=O)N1CC(CC(=O)O)c2ccccc21 (stereo not drawn) [Compound 60, CC(C)(OC=1C=CC(F)=CC1)C(=O)N2CC(CC(=O)O)C=3C=CC=CC23]
EP4R [1]; [4]
  inhibition at 10 µM: 13.8%

## O=C(O)CCC1CCCN(C(=O)c2nn(-c3ccccc3)c3c2CCC3)C1 (stereo not drawn) [Compound 61, OC(=O)CCC1CCCN(C1)C(=O)C2=NN(C=3CCCC23)C=4C=CC=CC4]
EP4R [1]; [4]
  inhibition at 10 µM: 15.1%

## CN1C(=O)C(=Cc2cccc(OCC(=O)O)c2)c2cc(Br)cnc21 [Compound 62, CN1C(=O)C(=CC=2C=CC=C(OCC(=O)O)C2)C=3C=C(Br)C=NC13]
EP4R [1]; [4]
  inhibition at 10 µM: 17.2%
EP4R [2]; [5]
  IC50: 3470 nM
EP4R [2]; [6]
  IC50: 3510 nM
EP4R [2]; PRESTO-Tango Ki* (nM)
  Ki: 702 nM
EP4R [2]
  antagonist activity at EP4R: dose-dependent antagonist activity

## CCc1ccc(C(=O)Nc2cccc(-c3nnn[nH]3)c2)c(C)n1 [Compound 63, CCC=1C=CC(C(=O)NC=2C=CC=C(C2)C3=NN=NN3)=C(C)N1]
EP4R [1]; [4]
  inhibition at 10 µM: 19.3%

## Cc1ccc(-n2nc(C(=O)Nc3ccc(CC(=O)O)cc3)c3c2CCC3)cc1 [Compound 64, CC=1C=CC(=CC1)N2N=C(C(=O)NC=3C=CC(CC(=O)O)=CC3)C=4CCCC42]
EP4R [1]; [4]
  inhibition at 10 µM: 20%

## O=C(O)CC1CN(C(=O)[C@@H]2C[C@]23CCOc2ccccc23)c2ccccc21 (stereo partly drawn) [Compound 65, OC(=O)CC1CN(C(=O)[C@@H]2C[C@@]32CCOC=4C=CC=CC43)C=5C=CC=CC15]
EP4R [1]; read-out: 3H-PGE2 Displacement by 10 µM of docking hits (Displacment), 10 µM compound, individual replicate values (Figure 1B source data)
  inhibition at 10 µM: 23.4%
EP4R [1]; [4]
  inhibition at 10 µM: 24%
EP4R [2]; [6]
  IC50: 5160 nM
EP4R [2]; PRESTO-Tango Ki* (nM), calculated using the Cheng Prusoff equation
  Ki: 1030 nM
EP4R [2]
  antagonist activity at EP4R: dose-dependent antagonist activity

## O=C(NC1CCCC(C(=O)O)CC1)c1csc(C2CCCCC2)c1 (stereo not drawn) [Compound 66, OC(=O)C1CCCC(CC1)NC(=O)C2=CSC(=C2)C3CCCCC3]
wild-type EP4R
  IC50: 4050 nM
wild-type EP4R; [7]
  Ki: 810 nM
EP4R [1]; [8]
  inhibition at 10 µM: 25.6%
EP4R [2]; PRESTO-Tango -logIC50
  IC50: 3720 nM
EP4R [2]; PRESTO-Tango IC50 (nM)
  IC50: 3760 nM
EP4R [2]; [9]
  Ki: 752 nM
EP4R [2]
  antagonist activity at EP4R: dose-dependent antagonist activity

## Cn1nnnc1NCC(C(=O)OCc1ccccc1)c1ccccc1 (stereo not drawn) [Compound 67, CN1N=NN=C1NCC(C(=O)OCC=2C=CC=CC2)C=3C=CC=CC3]
EP4R [1]; [4]
  inhibition at 10 µM: 31.5%

## O=C(O)Cc1ccc(NC(=O)c2cc(C3CC3)nc3ccc(F)cc23)cc1 [Compound 68, OC(=O)CC=1C=CC(NC(=O)C=2C=C(N=C3C=CC(F)=CC23)C4CC4)=CC1]
EP4R [1]; [4]
  inhibition at 10 µM: 31.8%
EP4R [2]; [5]
  IC50: 11000 nM
EP4R [2]; [6]
  IC50: > 10000 nM
EP4R [2]
  antagonist activity at EP4R: dose-dependent antagonist activity

## Cc1c(C(=O)N(C)c2nnn[nH]2)cnn1-c1ccc(Cl)cc1 [Compound 69, CN(C(=O)C=1C=NN(C1C)C=2C=CC(Cl)=CC2)C3=NN=NN3]
EP4R [1]; [4]
  inhibition at 10 µM: 37.7%

## N#Cc1ccc(OCc2cccc(C(=O)Nc3cccc(-c4nnn[nH]4)c3)c2)cc1 [Compound 70, O=C(NC=1C=CC=C(C1)C2=NN=NN2)C=3C=CC=C(COC=4C=CC(C#N)=CC4)C3]
EP4R [1]; [4]
  inhibition at 10 µM: 56.2%
EP4R [2]; PRESTO-Tango -logIC50
  IC50: 14500 nM
EP4R [2]; PRESTO-Tango IC50 (nM)
  IC50: > 10000 nM
EP4R [2]
  antagonist activity at EP4R: dose-dependent antagonist activity

## O=C(O)C1CCC2(CC1)CC(Nc1ncnc3sc4c(c13)CCCC4)C2 (stereo not drawn) [Compound 71, OC(=O)C1CCC2(CC(C2)NC=3N=CN=C4SC=5CCCCC5C34)CC1]
wild-type EP4R
  IC50: 899 nM
  ligand efficiency: 0.35 kcal/mol per “heavy” atom
wild-type EP4R; [7]
  Ki: 180 nM
EP4R [1]; [8]
  inhibition at 10 µM: 62.9%
EP4R [2]; PRESTO-Tango IC50 (nM)
  IC50: 850 nM
EP4R [2]; [9]
  Ki: 170 nM
EP4R [2]
  antagonist activity at EP4R: dose-dependent antagonist activity

## O=C(O)C1CCC2(CC1)CC(Nc1ncnc3sc4ccccc4c13)C2 (stereo not drawn) [Compound 72, OC(=O)C1CCC2(CC(C2)NC=3N=CN=C4SC=5C=CC=CC5C34)CC1]
wild-type EP4R
  IC50: 514 nM
wild-type EP4R; [7]
  Ki: 103 nM
EP4R [2]; PRESTO-Tango IC50 (nM)
  IC50: 444 nM
EP4R [2]; [9]
  Ki: 89 nM

## O=C(O)C1CCC2(CC1)CC(Nc1ncnc3[nH]c4ccccc4c13)C2 (stereo not drawn) [Compound 73, OC(=O)C1CCC2(CC(C2)NC=3N=CN=C4NC=5C=CC=CC5C34)CC1]
wild-type EP4R
  IC50: 146 nM
  ligand efficiency: 0.40 kcal/mol per “heavy” atom
wild-type EP4R; [7]
  Ki: 29 nM
EP4R [2]; PRESTO-Tango IC50 (nM)
  IC50: 548 nM
EP4R [2]; [9]
  Ki: 110 nM

## Cn1c2ccccc2c2c(NC3CC4(CCC(C(=O)O)CC4)C3)ncnc21 (stereo not drawn) [Compound 75, CN1C=2C=CC=CC2C=3C(NC4CC5(C4)CCC(CC5)C(=O)O)=NC=NC13]
wild-type EP4R
  IC50: 813 nM
  Ki: 163 nM
  reduced potency of analog: up to 10 fold
EP4R [2]; PRESTO-Tango IC50 (nM)
  IC50: 607 nM
EP4R [2]; PRESTO-Tango Ki* (nM)
  Ki: 121 nM

## O=C(N[C@@H]1CC[C@@H](C(=O)O)CCC1(F)F)c1c[nH]c(-c2ccccc2)c1 [Compound 80, OC(=O)[C@@H]1CC[C@@H](NC(=O)C2=CNC(=C2)C=3C=CC=CC3)C(F)(F)CC1]
EP4R [1]
  Ki: 1380 nM
EP4R [2]; [5]
  IC50: 18600 nM
EP4R [2]; [6]
  IC50: > 10000 nM

## Cc1cc(C(=O)NC2CCCC(C(=O)O)CC2)c(C)n1-c1ccc2c(c1)OCCO2 (stereo not drawn) [Compound 81, CC1=CC(C(=O)NC2CCCC(CC2)C(=O)O)=C(C)N1C=3C=CC=4OCCOC4C3]
EP4R [1]
  Ki: 1170 nM
EP4R [2]; [5]
  IC50: 35500 nM
EP4R [2]; [6]
  IC50: > 10000 nM

## O=C(O)C1CCC2(CC1)CC(Nc1ncnc3[nH]c4cc(F)ccc4c13)C2 (stereo not drawn) [Compound 134, OC(=O)C1CCC2(CC(C2)NC=3N=CN=C4NC=5C=C(F)C=CC5C34)CC1]
wild-type EP4R
  IC50: 155 nM
  Ki: 31 nM
EP4R [2]; PRESTO-Tango IC50 (nM)
  IC50: 203 nM
EP4R [2]; PRESTO-Tango Ki* (nM)
  Ki: 41 nM

## O=C(O)C1CCC2(CC1)CC(Nc1ncnc3[nH]c4ccc(Br)cc4c13)C2 (stereo not drawn) [Compound 135, OC(=O)C1CCC2(CC(C2)NC=3N=CN=C4NC=5C=CC(Br)=CC5C34)CC1]
wild-type EP4R
  IC50: 136 nM
  Ki: 27.2 nM
EP4R [2]; PRESTO-Tango IC50 (nM)
  IC50: 91.5 nM
EP4R [2]; PRESTO-Tango Ki* (nM)
  Ki: 18.3 nM

## CCCCC[C@H](O)/C=C/[C@@H]1[C@@H](C/C=C\CCCC(=O)O)[C@H]2CO[C@@H]1C2 [Compound U46619]
[3]; Log[Drug] -4.52
  Thromboxane Receptor response, U46619 alone: 101.694 and 84.622 and 99.9733
[3]; Log[Drug] -5
  Thromboxane Receptor response, U46619 alone: 98.3839 and 68.3538 and 108.147 and 95.8866 and 103.858 and 102.233 and 110.843 and 96.4513 and 100.005 and 98.4577 and 94.7206 and 109.077
[3]; Log[Drug] -5.52
  Thromboxane Receptor response, U46619 alone: 90.8596 and 73.8682 and 91.1581 and 74.0123 and 88.5137 and 87.193 and 76.6016 and 83.785 and 87.9816 and 86.9707 and 87.4905
[3]; Log[Drug] -6
  Thromboxane Receptor response, U46619 alone: 73.0479 and 61.333 and 83.5479 and 72.2309 and 75.4547 and 85.5682 and 93.0317 and 74.9476 and 75.1314 and 67.4734 and 82.2643
[3]; Log[Drug] -6.52
  Thromboxane Receptor response, U46619 alone: 53.1945 and 46.9117 and 56.4473 and 51.2866 and 54.1589 and 49.4671 and 53.794 and 49.5996 and 46.1382 and 46.7815 and 52.9845 and 63.6908
[3]; Log[Drug] -7
  Thromboxane Receptor response, U46619 alone: 26.7811 (2×) and 28.7836 and 26.1246 and 27.7368 and 28.2234 and 28.3716 and 27.3608 and 24.4507 and 37.3892
[3]; Log[Drug] -7.52
  Thromboxane Receptor response, U46619 alone: 6.98 and 11.6509 and 14.4408 and 11.9391 and 9.265 and 14.6944 and 12.5961 and 11.3627
[3]; Log[Drug] -8
  Thromboxane Receptor response, U46619 alone: 3.852 and 4.407 and 5.259 and 6.346 and 4.095 and 3.487 and 3.973 and 12.9637 and 7.1283 and 8.507 and 7.772 and 8.062
[3]; Log[Drug] -8.52
  Thromboxane Receptor response, U46619 alone: 0.6979 and 0.4256 and 1.264 and 1.489 and 0.4372 and 0.7674 and -0.6982 and -0.1162 and -0.5757 and -0.4127
[3]; Log[Drug] -9
  Thromboxane Receptor response, U46619 alone: 1.749 and 1.539 and -0.4127 and -0.8139 and 0.03755 and 0.2374 and 1.155 and 2.074 and -0.008962 and 0.4505 and -0.2293

## CC(C(=O)Nc1cc(C#N)ccc1CCCC(=O)O)c1ccc(F)c2ccccc12 (stereo not drawn) [ONO-AE3-208, reference compound]
wild-type EP4R; [7]
  Ki: 1.3 nM
